Measured values from the NIST ThermoML archive (doi:10.1016/j.jct.2013.05.019).
Numbers after ± are expanded uncertainties.

Assay: xn = mol fraction of the nth substance listed
Details: 101 kPa, Liquid; for viscosity: Falling or rolling sphere viscometry; for mass density: Vibrating tube method; for electrical conductivity: Alternating current cell with electrodes

`CC(=O)O.CCCCN` [butylammonium acetate] + O gave a viscosity (293.15 K, x1 = 0.031) of 2.659 ± 0.058 mPa·s, a viscosity (293.15 K, x1 = 0.06) of 4.018 ± 0.088 mPa·s and a viscosity (293.15 K, x1 = 0.0992) of 6.792 ± 0.15 mPa·s. For the same compound, the viscosity (293.15 K, x1 = 0.2007) was 16.91 ± 0.38 mPa·s, the viscosity (293.15 K, x1 = 0.2999) was 35.04 ± 0.76 mPa·s and the viscosity (293.15 K, x1 = 0.4013) was 53.35 ± 1.1 mPa·s. The viscosity (293.15 K, x1 = 0.5004) was 101.3 ± 3.1 mPa·s, the viscosity (293.15 K, x1 = 0.5666) was 141.64 ± 5.5 mPa·s and the viscosity (293.15 K, x1 = 0.7973) was 390.26 ± 27 mPa·s. For the same compound, the viscosity (293.15 K, x1 = 0.8972) was 579.35 ± 48 mPa·s, the viscosity (293.15 K, x1 = 1) was 771.69 ± 71 mPa·s and the mass density (293.15 K, x1 = 0.031) was 1009.89 ± 0.11 kg/m3. The mass density (293.15 K, x1 = 0.06) was 1015.91 ± 0.11 kg/m3, the mass density (293.15 K, x1 = 0.0992) was 1014.35 ± 0.11 kg/m3 and the mass density (293.15 K, x1 = 0.2007) was 1003.86 ± 0.11 kg/m3. It also gave a mass density (293.15 K, x1 = 0.2999) of 993.39 ± 0.12 kg/m3, a mass density (293.15 K, x1 = 0.4013) of 984.8 ± 0.12 kg/m3 and a mass density (293.15 K, x1 = 0.5004) of 977.72 ± 0.13 kg/m3. It also gave a mass density (293.15 K, x1 = 0.5666) of 974.54 ± 0.14 kg/m3, a mass density (293.15 K, x1 = 0.7973) of 964.56 ± 0.18 kg/m3 and a mass density (293.15 K, x1 = 0.8972) of 962.15 ± 0.21 kg/m3. The mass density (293.15 K, x1 = 1) was 959.61 ± 0.23 kg/m3, the electrical conductivity (298.15 K, x1 = 0.0006) was 0.168 ± 0.039 S/m and the electrical conductivity (298.15 K, x1 = 0.0012) was 0.316 ± 0.032 S/m. It also gave an electrical conductivity (298.15 K, x1 = 0.0018) of 0.434 ± 0.034 S/m, an electrical conductivity (298.15 K, x1 = 0.0026) of 0.572 ± 0.036 S/m and an electrical conductivity (298.15 K, x1 = 0.0032) of 0.67 ± 0.029 S/m. For the same compound, the electrical conductivity (298.15 K, x1 = 0.0046) was 0.842 ± 0.03 S/m, the electrical conductivity (298.15 K, x1 = 0.0078) was 1.12 ± 0.026 S/m and the electrical conductivity (298.15 K, x1 = 0.0121) was 1.34 ± 0.027 S/m. It also gave an electrical conductivity (298.15 K, x1 = 0.0181) of 1.45 ± 0.029 S/m, an electrical conductivity (298.15 K, x1 = 0.0329) of 1.54 ± 0.031 S/m and an electrical conductivity (298.15 K, x1 = 0.0682) of 1.58 ± 0.032 S/m. It also gave an electrical conductivity (298.15 K, x1 = 0.0999) of 1.54 ± 0.031 S/m, an electrical conductivity (298.15 K, x1 = 0.2001) of 1.16 ± 0.023 S/m and an electrical conductivity (298.15 K, x1 = 0.3479) of 0.513 ± 0.01 S/m. It also gave an electrical conductivity (298.15 K, x1 = 0.5427) of 0.164 ± 0.003 S/m, an electrical conductivity (298.15 K, x1 = 0.8065) of 0.074 ± 0.002 S/m and an electrical conductivity (298.15 K, x1 = 1) of 0.021 ± 0.001 S/m. The viscosity (298.15 K, x1 = 0.031) was 2.328 ± 0.05 mPa·s, the viscosity (298.15 K, x1 = 0.06) was 3.345 ± 0.073 mPa·s and the viscosity (298.15 K, x1 = 0.0992) was 5.626 ± 0.12 mPa·s. The viscosity (298.15 K, x1 = 0.2007) was 13.83 ± 0.3 mPa·s, the viscosity (298.15 K, x1 = 0.2999) was 28.14 ± 0.61 mPa·s and the viscosity (298.15 K, x1 = 0.4013) was 46.77 ± 1 mPa·s. For the same compound, the viscosity (298.15 K, x1 = 0.5004) was 77.42 ± 1.9 mPa·s, the viscosity (298.15 K, x1 = 0.5666) was 102.65 ± 3.1 mPa·s and the viscosity (298.15 K, x1 = 0.7973) was 283.43 ± 17 mPa·s. The viscosity (298.15 K, x1 = 0.8972) was 415.18 ± 30 mPa·s, the viscosity (298.15 K, x1 = 1) was 546.35 ± 44 mPa·s and the mass density (298.15 K, x1 = 0.031) was 1006.58 ± 0.12 kg/m3. It also gave a mass density (298.15 K, x1 = 0.06) of 1013.18 ± 0.11 kg/m3, a mass density (298.15 K, x1 = 0.0992) of 1011.15 ± 0.11 kg/m3 and a mass density (298.15 K, x1 = 0.2007) of 1000.82 ± 0.11 kg/m3. For the same compound, the mass density (298.15 K, x1 = 0.2999) was 990.34 ± 0.12 kg/m3, the mass density (298.15 K, x1 = 0.4013) was 981.74 ± 0.12 kg/m3 and the mass density (298.15 K, x1 = 0.5004) was 974.67 ± 0.13 kg/m3. The mass density (298.15 K, x1 = 0.5666) was 971.45 ± 0.14 kg/m3, the mass density (298.15 K, x1 = 0.7973) was 961.46 ± 0.18 kg/m3 and the mass density (298.15 K, x1 = 0.8972) was 958.98 ± 0.21 kg/m3. It also gave a mass density (298.15 K, x1 = 1) of 956.44 ± 0.23 kg/m3, a viscosity (303.15 K, x1 = 0.031) of 2.196 ± 0.047 mPa·s and a viscosity (303.15 K, x1 = 0.06) of 2.864 ± 0.062 mPa·s. It also gave a viscosity (303.15 K, x1 = 0.0992) of 4.714 ± 0.1 mPa·s, a viscosity (303.15 K, x1 = 0.2007) of 11.79 ± 0.25 mPa·s and a viscosity (303.15 K, x1 = 0.2999) of 22.91 ± 0.5 mPa·s. The viscosity (303.15 K, x1 = 0.4013) was 40.9 ± 0.88 mPa·s, the viscosity (303.15 K, x1 = 0.5004) was 60.97 ± 1.3 mPa·s and the viscosity (303.15 K, x1 = 0.5666) was 82.19 ± 2.1 mPa·s. The viscosity (303.15 K, x1 = 0.7973) was 211.13 ± 10 mPa·s, the viscosity (303.15 K, x1 = 0.8972) was 304.3 ± 19 mPa·s and the viscosity (303.15 K, x1 = 1) was 397.17 ± 28 mPa·s. For the same compound, the mass density (303.15 K, x1 = 0.031) was 1003.24 ± 0.12 kg/m3, the mass density (303.15 K, x1 = 0.06) was 1009.87 ± 0.11 kg/m3 and the mass density (303.15 K, x1 = 0.0992) was 1007.91 ± 0.11 kg/m3. The mass density (303.15 K, x1 = 0.2007) was 997.74 ± 0.11 kg/m3, the mass density (303.15 K, x1 = 0.2999) was 987.26 ± 0.12 kg/m3 and the mass density (303.15 K, x1 = 0.4013) was 978.64 ± 0.13 kg/m3. For the same compound, the mass density (303.15 K, x1 = 0.5004) was 971.64 ± 0.14 kg/m3, the mass density (303.15 K, x1 = 0.5666) was 968.34 ± 0.14 kg/m3 and the mass density (303.15 K, x1 = 0.7973) was 958.36 ± 0.18 kg/m3. The mass density (303.15 K, x1 = 0.8972) was 955.83 ± 0.21 kg/m3, the mass density (303.15 K, x1 = 1) was 953.33 ± 0.23 kg/m3 and the viscosity (308.15 K, x1 = 0.031) was 1.864 ± 0.04 mPa·s. For the same compound, the viscosity (308.15 K, x1 = 0.06) was 2.439 ± 0.053 mPa·s, the viscosity (308.15 K, x1 = 0.0992) was 3.985 ± 0.086 mPa·s and the viscosity (308.15 K, x1 = 0.2007) was 9.893 ± 0.21 mPa·s. For the same compound, the viscosity (308.15 K, x1 = 0.2999) was 18.78 ± 0.41 mPa·s, the viscosity (308.15 K, x1 = 0.4013) was 35.59 ± 0.77 mPa·s and the viscosity (308.15 K, x1 = 0.5004) was 48.93 ± 1.1 mPa·s. For the same compound, the viscosity (308.15 K, x1 = 0.5666) was 65.48 ± 1.5 mPa·s, the viscosity (308.15 K, x1 = 0.7973) was 160.94 ± 6.7 mPa·s and the viscosity (308.15 K, x1 = 0.8972) was 227.72 ± 12 mPa·s. It also gave a viscosity (308.15 K, x1 = 1) of 294.59 ± 18 mPa·s, a mass density (308.15 K, x1 = 0.031) of 999.87 ± 0.12 kg/m3 and a mass density (308.15 K, x1 = 0.06) of 1006.52 ± 0.11 kg/m3. It also gave a mass density (308.15 K, x1 = 0.0992) of 1004.62 ± 0.11 kg/m3, a mass density (308.15 K, x1 = 0.2007) of 994.62 ± 0.11 kg/m3 and a mass density (308.15 K, x1 = 0.2999) of 984.17 ± 0.12 kg/m3. For the same compound, the mass density (308.15 K, x1 = 0.4013) was 975.55 ± 0.13 kg/m3, the mass density (308.15 K, x1 = 0.5004) was 968.58 ± 0.14 kg/m3 and the mass density (308.15 K, x1 = 0.5666) was 965.22 ± 0.14 kg/m3. The mass density (308.15 K, x1 = 0.7973) was 955.23 ± 0.18 kg/m3, the mass density (308.15 K, x1 = 0.8972) was 952.69 ± 0.21 kg/m3 and the mass density (308.15 K, x1 = 1) was 950.15 ± 0.23 kg/m3. For the same compound, the viscosity (313.15 K, x1 = 0.031) was 1.665 ± 0.036 mPa·s, the viscosity (313.15 K, x1 = 0.06) was 2.132 ± 0.046 mPa·s and the viscosity (313.15 K, x1 = 0.0992) was 3.489 ± 0.075 mPa·s. It also gave a viscosity (313.15 K, x1 = 0.2007) of 8.389 ± 0.18 mPa·s, a viscosity (313.15 K, x1 = 0.2999) of 15.67 ± 0.34 mPa·s and a viscosity (313.15 K, x1 = 0.4013) of 31 ± 0.67 mPa·s. The viscosity (313.15 K, x1 = 0.5004) was 42.95 ± 0.92 mPa·s, the viscosity (313.15 K, x1 = 0.5666) was 56.12 ± 1.2 mPa·s and the viscosity (313.15 K, x1 = 0.7973) was 133.31 ± 4.9 mPa·s. For the same compound, the viscosity (313.15 K, x1 = 0.8972) was 180.6 ± 8.1 mPa·s, the viscosity (313.15 K, x1 = 1) was 222.24 ± 11 mPa·s and the mass density (313.15 K, x1 = 0.031) was 996.47 ± 0.12 kg/m3. The mass density (313.15 K, x1 = 0.06) was 1003.14 ± 0.11 kg/m3, the mass density (313.15 K, x1 = 0.0992) was 1001.29 ± 0.11 kg/m3 and the mass density (313.15 K, x1 = 0.2007) was 991.43 ± 0.11 kg/m3. The mass density (313.15 K, x1 = 0.2999) was 981.07 ± 0.12 kg/m3, the mass density (313.15 K, x1 = 0.4013) was 972.44 ± 0.13 kg/m3 and the mass density (313.15 K, x1 = 0.5004) was 965.54 ± 0.14 kg/m3. The mass density (313.15 K, x1 = 0.5666) was 962.11 ± 0.14 kg/m3, the mass density (313.15 K, x1 = 0.7973) was 952.09 ± 0.18 kg/m3 and the mass density (313.15 K, x1 = 0.8972) was 949.53 ± 0.21 kg/m3. It also gave a mass density (313.15 K, x1 = 1) of 946.98 ± 0.23 kg/m3.
